Patent US20240245805A1 (Orna Therapeutics, Inc., priority 2020, published 2024)
Read-outs that look alike come from different tables or passages of the source.

Legend:
[1] = cited from earlier work
[2] = test system: 1C1C7 cells; assay: 5′ UTR variants, GLuc in 1C1C7 cells; format: cell-based; settings: CK IRES with 5′ UTR variants
Text: This example describes modifications of circular RNAs by inserting 5′ UTR variants. […] 1C1C7 cells were transfected with the circular RNAs.

[3] = test system: HEK293 cells; format: cell-based, human; settings: circular RNA encoding Gluc with the listed IRES (UTR truncated to 675 nt) transfected into HEK293 cells; supernatant after 24 hours
[4] = test system: 1C1C7 cells; assay: GLuc luminescence and functional stability by IRES, 1C1C7 cells
[5] = Table 2, lipids of Formula (II)

Molecule: CCCCCCCCC(=O)N(CCCN(C)C)C(CCCCCCCCC(=O)OCC(CCCC)CCCC)CCCCCCCCC(=O)OCC(CCCC)CCCCCC (centres unmarked) [II-9]
- pKa [1, 5]: 6.27

Molecule: CCCCCCCCC(CCCC)COC(=O)CCCCCCCCC(CCCCCCCCC(=O)OCC(CCCC)CCCCCC)N(CCCN(C)C)C(=O)C(CC)CCCCC (centres unmarked) [II-35]
- pKa [1, 5]: 5.97

Molecule: CCCCCCCCC(CCCCCC)CCCOC(=O)CCCCCN(CCCCCC(=O)OCC(CCCCCC)CCCCCCCC)CCN(C)C (centres unmarked) [Lipid I-22]
- pKa ([1]; Table 1, lipids of Formula I): 6.53

Molecule: CCCCCCCCC(CCCCCC)CCCOC(=O)CCCCCN(CCCCCC(=O)OCC(CCCCCC)CCCCCCCC)CCN(C)CC (centres unmarked) [Lipid I-33]
- pKa ([1]; Table 1, lipids of Formula I): 6.27

Molecule: CCCCCCCCCCCCC(CCCCCCCCCC)C(=O)OCCCCCCN(CCCCCCOC(=O)C(CCCCCCCCCC)CCCCCCCCCCCC)CCN(C)C (centres unmarked) [Lipid I-39]
- pKa ([1]; Table 1, lipids of Formula I): 6.82

Molecule: UTR2: 5′ UTR variant: canonical Kozak sequence with "a 36-nucleotide unstructured/low GC spacer sequence" added (UTR2) (DNA AATAAGAGAGAAAAGAAGAGTAAGAAGAAATATAAGAGCCACC; 5' UTR segment within a circular RNA construct, further chemistry not given here)
- translation [2]: more effective

Molecule: UTR3: 5′ UTR variant: "a higher-GC/structured spacer with a kozak sequence" (UTR3) (DNA CGAACTAGTATTCTTCTGGTCCCCACAGACTCAGAGAGAACCCGCCACC; 5' UTR segment within a circular RNA construct, further chemistry not given here)
- translation [2]: did not show the same benefit

B1: EV C102 (nucleic acid, listed as Enterovirus sp.)
chain: CTTTGTACGCCTGTTTTACATCCCCTCCCCCACGTAACTTTAGAAGCAATTCAACAAGTTCAATAGAGGGGGTACAAACCAGTATCACCACGAACAAGCACTTCTGTTTCCCCGGTGATTTTACATAAGCTGTGCCCACGGCTGAAAGTGAATGATCCGTTACCCGCTCGAGTACTTCGAAAAGCCTAGTATCGCTTTGGGATCTTCGACGCGTTGCGCTCAGCACTCTACCCCGAGTGTAGCTTAGGCTGATGAGTCTGGGCATTCCCCATCGGCGACGATGGCCCAGGCTGCGTTGGCGGCCTACCCATGGCTAACGCCATGGGACGCTAGTTGTGAACAAGGTGTGAAGAGCCTATTGAGCTACTCGAGAGTCCTCCGGCCCCTGAATGCGGCTAATCCCAACCACGGATCAGGTGCCTCCAACCCAGGAGGTGGCCTGTCGTAACGCGCAAGTCTGTGGCGGAACCGACTACTTTGGGTGTCCGTGTTTCCTTTTATCTTTTAAATGGCTGCTTATGGTGACAATCATAGATTGTTATCATAAAGCGAATTGGATTGGCCATCCGGTGAAATACAAACACATTATTTACTTGTTTGTTGGATTTACTCCGCTCACACAGCTTACTCCTAAGATAATATTTATTGTATTGCTGGTAAGGAGACACTATTATA
modifications: lipid formulation
- Expression (luminescence from secreted Gluc protein) [3]: 8.85E+07

B2: PSIV (2x mut for Xbal) (nucleic acid)
DNA: GCAAAATGGGTACGTAGTTAACCACTGCGTATCAGGATTGCAGGCCACGAAGGGTATTTGCATATCTTTCTATGCGGTATTACGGCTTAAAACCCGTTGTATCTTGTTGTTTGACTGCCTGTATCACTAGTGGCCATTTTATTTAGGTTAGAGACCCCTGATAGTAGGAGAGTTACAAACTCTTTAAAAATTGTTGACCCCGGAAAAGATGGTGACCCCTGTAAGTAGTTGATCAAGAAGATCTATGCGCTGGCATAGTAATCCAGTGTTTCCTGTTTTAGGATGACCTCTGAAAGTAGATGACCGTGGAAAGTCACGTAGTGCCCCAATAAGCACGTTTGGGCAGCGTGCGCTATCACAAGGCTTGATCTCCGAGGAGCCCCTTGTTTTAGCTGGCTGGAAGCCAATGATCTTAAGTAGATAAGTGCTGTTGCTTGTAGTTCAACAGAAAGCTTTGAGTACGTCTTTCTTGCGAGAAAGAACACATGCATTCTTATGCTCTCAATTCTATTATTTTTATTTTGGGCGAAAGGAAAGCTCTCACGCGAGTACGAATAGCCAACCCTTTAT
modifications: lipid formulation
- Expression (luminescence from secreted Gluc protein) [3]: 9.70E+04

B3: EV I (nucleic acid)
chain: TTAGTACTTTCTCACGGGGATAGTGGTATCCCTCCCTAGTAATTTAGAAGACTTGAAAAACCGACCAATAGGCACCTCGCATCCAGCGGGGTAAAGGTCAAGCACTTCTGTTTCCCCGGGTCGAGTAGCGATAGACTGTGCCCACGGTCGAAGGTGAAACAACCCGTTATCCGACTTTGTACTTCGGGAAGCCTAGTACCACCAAAGATTATGCTTGGGGTTTCGCTCAGCACGACCCTGGTGTAGATCAGGCCGATGGATCACCGCATTCCTCACAGGCGACTGTGGCGGTGGTCGCGTGGCAGCCTGCCGATGGGGCAACCCATCGGACGCCAAGCATATGACAGGGTGTGAAGAGCCTACTGAGCTACAAAGTATTCCTCCGGCCCCTGAATGCGGCTAATCCCAACCACGGAGCATTTGCTACCAAACCAGGTAGTGGAATGTCGTAACGGGTAACTCTGTGGCGGAACCGACTACTTTGGGTGTCCGTGTTTCCTTTTAATTTATCATTCTGTATATGGTGACAACTATAGTGCTATCTCGATTTGCATTACTATTGTTGAGATTAAAACTTTATTACATTGTTGCATTTTACCCTTTGAGTGAGTTTTCACCTGAACAGATTAATTTACTCATCCTGTTTATATATTACAAGCAGAAATACTTGCAAAG
modifications: lipid formulation; Enterovirus I
- Expression (luminescence from secreted Gluc protein) [3]: 1.31E+08

B4: EV D94 (nucleic acid, listed as Enterovirus sp.)
chain: CGTGGCGGCCAGTACTCTGGTATCACGGTACCTTTGTACGCCTGTTTTATATCCCCTTCCCCCGCAACTTAGAAGAAAACAAATCAAGTTCACTAGGAGGGGGTACAAACCAGTACCACCACGAACAAGCACTTCTGTTTCCCCGGTGATGTCGTATAGACTGTAACCACGGTTGAAAACGATTGATCCGTTATCCGCTCTTGTACTTCGAAAAGCCCAGTATCACCTTGGAATCTTCGATGCGTTGCGCTCAGCACTCAACCCCAGAGTGTAGCTTAGGTCGATGAGTCTGGACACTCCTCACCGGCGACGGTGGTCCAGGCTGCGTTGGCGGCCTACCTGTGGTCCAAAGCCACAGGACGCTAGTTGTGAACAAGGTGTGAAGAGCCTATTGAGCTACAAGAGAATCCTCCGGCCCCTGAATGCGGCTAATCCTAACCACGGAGCAAGGGTACACAAACCAGTGTATATCTTGTCGTAACGCGCAAGTCTGTGGCGGAACCGACTACTTTGGGTGTCCGTGTTTCCTTTTGTTTTTATCATGGCTGCTTATGGTGACAATCTAAGATTGTTATCATATAGCTGTTGGATTGGCCATCCGGTAATTTATTGAGATTTGAGCATTTGCTTGTTTCTTCAACAATTTCACCTATTCATTGCATTTCAGCAGTCAAA
modifications: lipid formulation
- Expression (luminescence from secreted Gluc protein) [3]: 9.25E+07

B5: EV 30 (nucleic acid, listed as Enterovirus sp.)
chain: AAGCAAGGCAAACCTGACCAATAGTAGGTGTGGCACACCAGCCGCATTTTGGTCAAGCACTTCTGTTTCCCCGGACCGAGTATCAATAAGCTGCTCACGCGGCTGAAGGAGAAACCGTTCGTTACCCGACCAGCTACTTCGAGAAACCTAGTAACACTATGAACGTTGCGGAGTGTTTCGTTCAGCACTTCCCCCGTGTAGATCAGGTCGATGAGTCACCGCATTCCTCACGGGTGACCGTGGCGGTGGCTGCGTTGGCGGCCTGCCTACGGGTTCGCCCGTAGGACGCTCTAATACCGACATGGTGTGAAGAGTCCATTGAGCTAGCTGGTAGTCCTCCGGCCCCTGAATGCGGCTAATCCTAACTGCGGAGCAGGTGCTCACAGACCAGTGAGTAGCCTGTCGTAACGGGCAACTCTGCAGCGGAACCGACTACTTTGGGTGTTTTTCCTTTTTTCTTCTCTTATATTGGCTGCTTATGGTGACAATTAAAGAATTGTTACCATATAGCTATTGGATTGGCCATCCGGTGACGAGCAGAGCCATTGTTTACCTCTTTGTTGGATTTGTACCTTTGAACCACAAAGTCTTGAATACCATTCATCTCATTTTAAAGTTCAACTCAGCTAAAAGAAA
modifications: lipid formulation
- Expression (luminescence from secreted Gluc protein) [3]: 5.48E+06

B6: EV F1 BEV 261 (nucleic acid, listed as Enterovirus sp.)
chain: GCAATGCTGCACCAGTGCACTGGTACGCTAGTACCTTTTCACGGAGTAGATGGTATCCCTTACCCCGGAACCTAGAAGATTGCACACAAACCGACCAATAGGCGCACCGCATCCAGCCGTGCAGCGGTCAAGCACTTCTGTCTCCCCGGTCTGTAAAGATCGTTATCCGCCCGACCCACTACGAAAAGCCTAGTAACTGGCCAAGTGAACGCGAAGTTGCGCTCCGCCACAACCCCAGTGGTAGCTCTGGAAGATGGGGCTCGCACCACCCCCGTGGTAACACGGTTGCCTGCCCGCGTGTGCTTCCGGGTTCGGTCTCGTGCCGTTCACTTCAACTTCACGCAACCAGCCAAGAGCCTATTGTGCTGGGACGGTTTTCCTCCGGGGCCGTGAATGCTGCTAATCCCAACCTCCGAGCGTGTGCGCACAATCCAGTGTTGCTACGTCGTAACGCGTAAGTTGGAGGCGGAACAGACTACTTTCGGTACCCCGTGTTTCCTCTCATTTTATTTAATATTTTATGGTGACAATTGTTGAGATTTGCGCTCTTGCAACGTTGCCATTGAATATTGGCTTATACTATTTGGTTGCCTTTTACAAAACCTCTGATATACCCAGTTCTTACATTGATCTGCTTGTTTTTCTCAATTTGAAGTATAGACTACAAATAGCAAA
modifications: lipid formulation
- Expression (luminescence from secreted Gluc protein) [3]: 1.12E+07

B7: Salivirus A SZ-1 (nucleic acid)
DNA: TCTGTCCTCACCCCATCTTCCCTTCTTTCCTGCACCGTTACGCTTACTCGCATGTGCATTGAGTGGTGCACGTGCTTGAACAAACAGCTACACTCACATGGGGGCGGGTTTTCCCGCCCTGCGGCCTCTCGCGAGGCCCACCCCTCCCCTTCCTCCCATAACTACAGTGCTTTGGTAGGTAAGCATCCTGATCCCCCGCGGAAGCTGCTCACGTGGCAACTGTGGGGACCCAGACAGGTTATCAAAGGCACCCGGTCTTTCCGCCTTCAGGAGTATCCCTGCTAGTGAATTCTAGTAGGGCTCTGCTTGGTGCCAACCTCCCCCAAATGCGCGCTGCGGGAGTGCTCTTCCCCAACTCACCCTAGTATCCTCTCATGTGTGTGCTTGGTCAGCATATCTGAGACGATGTTCCGCTGTCCCAGACCAGTCCAGTAATGGACGGGCCAGTGTGCGTAGTCGTCTTCCGGCTTGTCCGGCGCATGTTTGGTGAACCGGTGGGGTAAGGTTGGTGTGCCCAACGCCCGTACTTTGGTGATACCTCAAGACCACCCAGGAATGCCAGGGAGGTACCCCGCTTCACAGCGGGATCTGACCCTGGGCTAATTGTCTACGGTGGTTCTTCTTGCTTCCACTTCTTTCTACTGTTCATG
modifications: source: /note="Description of Unknown: Salivirus A sequence"
- luminescence at 24 hours [4]: produced high luminescence
